Reference: US6008226A, “Substituted N-arylmethyl and heterocylylmethyl-1H-pyrazolo[3,4-b]quinolin-4-amines and compositions and methods of use thereof” (Sanofi-Synthelabo, priority 1998, dated 1999)
Where a name gives a salt, the structure may show the parent alone.

Key:
cGMP-PDE V [1] = target: T1, cGMP-PDE V (Homo sapiens, UniProt O76074); assay: c-GMP-PDE V inhibitory activity (cyclic nucleotide hydrolysis by isolated PDE isozymes); assay type: biochemical, various animal species and man; settings: for inhibition at 10 µM: read-out: Percent Inhibition cGMP-PDE V
T1 construct: The cGMP-PDE and other PDE isozymes were isolated from cardiovascular tissues (heart and aorta); from tissue; host or cells: cardiovascular tissues (heart and aorta) of various animal species and man
Protocol: The cGMP-PDE and other PDE isozymes were isolated from cardiovascular tissues (heart and aorta) of various animal species and man by anion-exchange and affinity chromatography as described by Silver et al., Sec. Messeng. Phos. 13: 13-25, 1991; PDE activity, in the presence and absence of test compounds was determined essentially as described by Thompson et al., Adv. Cyclic Nucleotide Res. 10: 69-92. To determine the potency and selectivity of compounds as PDE inhibitors, compounds are screened for their effect on cyclic nucleotide hydrolysis at 10 μM. If ≥50% inhibition of PDE activity is observed, an IC50 value (concentration of compound causing 50% reduction in PDE activity) and corresponding 95% confidence intervals are generated. The IC50 values are calculated from concentration-response curves as described by Tallarida and Murray, Manual of Pharmacologic Calculations with Computer Programs, Procedure 8, Graded Dose-response, pp. 14-19, Springer-Verlag, New York, 1981.

cGMP-PDE V [2] = target: T1, cGMP-PDE V; assay: as above; assay type: biochemical, various animal species and man; settings: read-out: Percent Inhibition cGMP-PDE V
[3] = test system: Spontaneously hypertensive rats (SHR); assay: antihypertensive activity in conscious spontaneously hypertensive rats (SHR), iv; assay type: in vivo, rat; settings: for ED25: Rattus norvegicus, 5 min, iv, 5 minutes after each cumulative dose, read-out: SHR iv ED25, mean arterial pressure
Protocol: After a 2 day recovery from surgery, three baseline blood pressure measurements were made at 5 min intervals in conscious SHR. Compounds to be tested or vehicle were then administered intravenously in a dose-dependent manner (0.3-10 mg base/kg) while arterial pressure was recorded continuously on a polygraph. The mean arterial pressure response was measured 5 minutes after the administration of each dose of the test compound and the next dose given in a cumulative dose fashion. The response to each dose of the test compound was calculated as the difference from the mean of the three baseline measurements.

[4] = test system: Spontaneously hypertensive rats; assay: reversing or reducing nitrate-induced tolerance in spontaneously hypertensive rats; assay type: in vivo, rat
Protocol: Spontaneously hypertensive rats (17-25 weeks of age) are made nitroglycerin tolerant by repeated administration of high doses of nitroglycerin (100 mg/kg, s.c., 3 times/day for 3 consecutive days). To confirm tolerance challenge doses of nitroglycerin are administered intravenously at doses ranging from 1-300 μg/kg and the maximum change in mean arterial pressure (MAP) for each dose is recorded. Groups of tolerant rats are then pretreated with the compounds of the invention (tolerant pretreated group) or with vehicle (0.05 N NaOH) (tolerant vehicle pretreated group) intravenously 5-10 minutes prior to administration of challenge doses of nitroglycerin. The administration of challenge doses of nitroglycerin to non-tolerant rats (the non-tolerant group) causes a dose-dependent decrease in MAP of between 10 to 40 mm Hg. […] It is expected that the administration of challenge doses of nitroglycerin to tolerant rats which have been pretreated with the compounds of the invention (tolerant pretreated group) should result in varying degrees of restoration of the hypotensive response. The area under the dose-MAP curve is then calculated for the non-tolerant group and for the tolerant vehicle pretreated group and the tolerant pretreated group. The percent reversal of nitrate-inducedtolerance is then calculated as follows:
Percent Reversal=(AUCtol-pretreated -AUCtol-veh)/(AUCnontol […]

interferon = settings: Crenshaw et al.; cited from earlier work

| Compound | inhibition at 10 µM (cGMP-PDE V [1]) [%] | inhibition at 1 µM (cGMP-PDE V [2]) [%] | IC50 (cGMP-PDE V [1]) [µM] | other results |
| --- | --- | --- | --- | --- |
| CCn1ncc2c(NCc3ccc(O)cc3)c3ccccc3nc21 [18(b), 1-ethyl-N-(4-hydroxyphenylmethyl)-1H-pyrazolo[3,4-b]quinolin-4-amine] | 78 | 82 | – | inhibition at 0.1 µM (cGMP-PDE V [2]): 63% |
| CCn1ncc2c(N(C)Cc3ccccc3)c3ccccc3nc21 [Example 20, 1-ethyl-N-(methyl)-N-(phenylmethyl)-1H-pyrazolo[3,4-b]quinolin-4-amine·CH3 SO3 H] | – | – | 1.26 | – |
| CCn1ncc2c(NCCc3ccccc3)c3ccccc3nc21 [2(c), 1-ethyl-N-(phenylethyl)-1H-pyrazolo[3,4-b]quinoline-4 amine] | – | – | 4.2 | ED25 [3]: 16.5 mg/kg |
| CCn1ncc2c(NCc3ccncc3)c3ccccc3nc21 [Example 8, 1-ethyl-N-(4-pyridinylmethyl)-1H-pyrazolo[3,4-b]quinolin-4-amine] | 50 | 5 | – | inhibition at 0.1 µM (cGMP-PDE V [2]): 0% |
| CCn1ncc2c(NCc3ccc(O)cc3)c3ccccc3nc21 [18(a), 1-ethyl-N-(4-hydroxyphenylmethyl)-1H-pyrazolo[3,4-b]quinolin-4-amine CH3 SO3 H] | – | – | 0.091 | – |
| CCn1ncc2c(NCc3ccc(OCCN4CCOCC4)cc3)c3ccccc3nc21 [15(c), 1-ethyl-N-[4-[2-(4-morpholinyl)ethoxy]phenylmethyl]-1H-pyrazolo[3,4-b]quinolin-4-amine] | 34 | 20 | – | inhibition at 0.1 µM (cGMP-PDE V [2]): 0% |
| CCn1ncc2c(NCc3ccc(OC)c(OC)c3)c3ccccc3nc21 [Example 7, 1-ethyl-N-(3,4-dimethoxyphenylmethyl)-1H-pyrazolo[3,4-b]quinolin-4-amine] | – | – | 0.18 | – |
| Cc1nn(C)c2nc3ccccc3c(NCc3ccccc3)c12 [Example 12(c), 1,3-dimethyl-N-(phenylmethyl)-1H-pyrazolo[3,4-b]quinolin-4-amine] | – | – | 1.14 | – |
| CCn1ncc2c(NCc3cccc(O)c3)c3ccccc3nc21 [Example 13, 1-ethyl-N-(3-hydroxyphenylmethyl)-1H-pyrazolo [3,4-b]quinolin-4-amine] | – | – | 0.15 | – |
| CCn1ncc2c(NCc3cccc(O)c3)c3ccccc3nc21 [Example 14, 1-ethyl-N-(3-hydroxyphenylmethyl)-1H-pyrazolo[3,4-b]quinolin-4-amine·2 CH3 SO3 H] | – | – | 0.086 | – |
| CCn1ncc2c(NCc3ccc(OC)cc3)c3ccccc3nc21 [Example 3, 1-ethyl-N-(4-methoxyphenylmethyl)-1H-pyrazolo[3,4-b]quinolin-4-amine·HCl·1/2H2 O] | – | – | 0.089 | – |
| CCn1ncc2c(NCc3ccccc3)c3ccc(O)cc3nc21 [Example 6, 1-ethyl-7-hydroxy-N-(phenylmethyl)-1H-pyrazolo[3,4-b]quinolin-4-amine] | 85 | 50 | – | inhibition at 0.1 µM (cGMP-PDE V [2]): 17% |
| O=[N+]([O-])OCC(CO[N+](=O)[O-])O[N+](=O)[O-] [nitroglycerin] | – | – | – | dose-dependent decrease in MAP ([4]; non-tolerant rats, nitroglycerin challenge 1-300 μg/kg iv): 10 to 40 mm Hg; hypotensive response to challenge doses of nitroglycerin ([4]; tolerant vehicle pretreated group, 1-300 μg/kg iv): significant reduction of the hypotensive response |
| CCn1ncc2c(NCc3ccco3)c3ccccc3nc21 [Example 16, 1-ethyl-N-(2-furanylmethyl)-1H-pyrazolo[3,4-b]quinolin-4-amine] | – | – | – | SHR iv % change in mean arterial pressure ([3]; 10 mg/kg iv): -16% |
| CCn1ncc2c(NCc3ccc(O)cc3)c3cc(O)ccc3nc21 [Example 24, 1-ethyl-6-hydroxy-N-(4-hydroxyphenylmethyl)-1H-pyrazolo[3,4-b]quinolin-4-amine-CH3 SO3 H] | – | – | 0.12 | SHR iv % change in mean arterial pressure ([3]; 1 mg/kg iv): -10%; SHR iv % change in mean arterial pressure ([3]; 3 mg/kg iv): -9%; SHR iv % change in mean arterial pressure ([3]; 10 mg/kg iv): -15% |
| CCn1ncc2c(NCc3ccc(C#N)cc3)c3ccccc3nc21 [Example 10, 1-ethyl-N-(4-cyanophenylmethyl)-1H-pyrazolo[3,4-b]quinolin-4-amine] | 57 | 0 | – | – |
| Cc1nn(C)c2nc3ccccc3c(NCc3ccccc3N(C)C)c12 [N-[[2-(dimethylamino)phenyl]methyl]-1,3-dimethyl-1H-pyrazolo[3,4-b] quinolin-4-amines] | – | – | – | activity in the interferon assay (interferon): inactive |
| CCn1nc(C)c2c(NCc3ccccc3)c3ccccc3nc21 [9(d), 1-ethyl-3-methyl-N-(phenylmethyl)-1H-pyrazolo[3,4-b]quinolin-4-amine·HCl] | – | – | 0.17 | – |
| CCn1ncc2c(NCc3ccccc3)c3ccccc3nc21 [1(a), 1-ethyl-N-(phenylmethyl)-1H-pyrazolo[3,4-b]quinolin-4-amine] | – | – | 0.21 | ED25 [3]: 25 mg/kg |
| CCn1ncc2c(NC3CCc4ccccc43)c3ccccc3nc21 (stereo not shown) [Example 22, 1-ethyl-N-(1-indanyl)-1H-pyrazolo[3,4-b]quinolin-4-amine·CH3 SO3 H] | 94 | 75 | – | inhibition at 0.1 µM (cGMP-PDE V [2]): 34% |
| Cc1nn(C)c2nc3ccccc3c(NC3CC3)c12 [N-cyclopropyl, N-cyclopropyl-1,3-dimethyl-1H-pyrazolo[3,4-b] quinolin-4-amine] | – | – | – | activity in the interferon assay (interferon): inactive |
| CCn1ncc2c(NCc3ccccn3)c3ccccc3nc21 [Example 21, 1-ethyl-N-(2-pyridinylmethyl)-1H-pyrazolo[3,4-b]quinolin-4-amine-2CH3SO3 H] | 97 | 58 | – | inhibition at 0.1 µM (cGMP-PDE V [2]): 27% |
| Cc1nn(C)c2nc3ccccc3c(NC34CC5CC(CC(C5)C3)C4)c12 [N-tricyclo[3.3.1.1^3,7]dec-1-yl, N-tricyclo[3.3.1.1^3,7]dec-1-yl-1,3-dimethyl-1H-pyrazolo[3,4-b] quinolin-4-amine] | – | – | – | activity in the interferon assay (interferon): inactive |
| CCn1ncc2c(NCc3ccc(OC)cc3)c3cc(OC)ccc3nc21 [23(c), 1-ethyl-6-methoxy-N-(4-methoxyphenylmethyl)-1H-pyrazolo[3,4-b]quinolin-4-amine·CH3 SO3 H] | – | – | 0.014 | SHR iv % change in mean arterial pressure ([3]; 1 mg/kg iv): -7%; SHR iv % change in mean arterial pressure ([3]; 3 mg/kg iv): -4% |
| CC(C)n1ncc2c(NCc3ccccc3)c3ccccc3nc21 [4(c), 1-isopropyl-N-(phenylmethyl)-1H-pyrazolo[3,4-b]quinolin-4-amine] | – | – | 0.18 | – |
| Cc1nn(C)c2nc3ccccc3c(NCCCNC34CC5CC(CC(C5)C3)C4)c12 [N-(1,3-dimethyl-1H-pyrazolo[3,4-b]quinolin-4-yl)-N'-tricyclo[3.3.1.1^3,7]dec-1-yl-1,3-propane diamine] | – | – | – | activity in the interferon assay (interferon): inactive |
| Cc1nn(C)c2nc3ccccc3c(NCc3cccnc3)c12 [N-(3-pyridinylmethyl), N-(3-pyridinylmethyl)-1,3-dimethyl-1H-pyrazolo[3,4-b] quinolin-4-amine] | – | – | – | activity in the interferon assay (interferon): inactive |
| CCn1ncc2c(NCc3cccc(OC)c3)c3ccccc3nc21 [Example 11, 1-ethyl-N-(3-methoxyphenylmethyl)-1H-pyrazolo[3,4-b]quinolin-4-amine] | – | – | 0.45 | – |
| CCn1ncc2c(NCc3cccnc3)c3ccccc3nc21 [Example 19, 1-ethyl-N-(3-pyridinylmethyl)-1H-pyrazolo[3,4-b]quinolin-4-amine ·2CH3 SO3 H] | 75 | 43 | – | inhibition at 0.1 µM (cGMP-PDE V [2]): 10% |
| CCn1ncc2c(NCc3ccccc3)c3ccc(OC)cc3nc21 [5(e), 1-ethyl-7-methoxy-N-(phenylmethyl)-1H-pyrazolo[3,4-b]quinolin-4-amine] | 85 | 54 | – | inhibition at 0.1 µM (cGMP-PDE V [2]): 14% |
